Columns and labels:
[1] = system: pupillary diameter of the eye; test: Pupillary diameter over 2 hours after a single eye drop of caffeine 2 wt. % in water, 5 individuals (Grand Seiko autorefractor); format: in vivo, human; details: for average decrease in pupillary diameter compared to baseline: 5 individuals; for maximal decrease in pupillary diameter: largest among individuals
Experimental: FIG. 1 is a schematic of the pupil diameter of eyes prescribed with caffeine 2% over time.
FIG. 1 illustrates the baseline pupillary diameter and the pupillary diameter over 2 hours in a group of 5 individuals (3 males and 2 females, age ranging from 31 to 45 yrs) prescribed with an ophthalmic composition comprising caffeine. A topical ophthalmic composition comprising caffeine 2 wt. % in water was instilled (as a single eye drop in the range of from 0.025 mL to 0.075 ml, such as an average single drop size of about 0.05 mL) in one eye of each of the individuals. Pupillary diameter at baseline and at subsequent time points was captured using a Grand Seiko autorefractor for 11 secs and data summarized. The room illumination was standardized at 150 to 200 lux. As observed from FIG. 1, there was a decrease in pupillary diameter post instillation. On average, compared to baseline, the decrease in pupillary diameter at 30 mins and 1 hr post instillation was 0.3 mm and was approximately 0.2 mm at 2 hrs. There was some variation between the various individuals, however the maximal […] in pupillary diameter at 30 mins was 0.4 mm, was approximately 0.8 mm at 1 hr and was approximately 0.6 mm at 2 hrs. Such an ophthalmic composition, as disclosed herein, can be used according to the methods provided herein to reduce the pupillary diameter of a treated eye of a subject and be effective in treating or managing symptoms related to presbyopia and/or mydriasis and/or eyes with disorders requiring light modulation such as one or more of vision disturbances.

[2] = system: pupillary diameter of the eye; test: Reversal of Tropicamide 1% mydriasis by caffeine 2.0 w/v % in saline, left eye only, person (Grand Seiko autorefractor); format: in vivo, human; details: for Pupillary diameter Left eye: given 50 mins after Tropicamide 1%
Experimental: FIG. 4 illustrates that difference in pupil diameter in the right and left eyes of an individual, wherein Tropicamide 1% was instilled in both eyes and approximately 50 minutes later, an ophthalmic composition comprising Caffeine at 2 w/v. % was instilled in the left eye only.
The following Table 3 illustrates the pupil diameter of a person. An aqueous solution of 1% Tropicamide was instilled in both eyes. Pupillary diameter was measured over a 15 second interval with a Grand Seiko autorefractor with the individual fixating at an object positioned 1 meter away. Pupillary diameter was dynamically sampled at multiple time points over the 15 second interval. Pupillary diameters for both eyes were measured prior to instillation (baseline), soon after instillation of 1% Tropicamide and then 20 minutes and 50 minutes post instillation. […] At this time point, a single drop (0.05 mL) of 2.0 w/v % Caffeine in Saline (0.9 wt. % NaCl) (composition 1) was instilled in the left eye only. The individual was monitored 30 minutes, 60 minutes, 2 hrs, 4 hrs and 6.5 hrs from instillation of Caffeine.
FIG. 4 illustrates the difference in pupillary diameter between the right and left eyes 4 hrs from the instillation of Tropicamide 1% in both eyes and […] from instillation of Caffeine 2 w/v % in the left eye.

SMILES: Cn1c(=O)c2c(ncn2C)n(C)c1=O [Caffeine, caffeine (1,7 methylxanthine)]
- average decrease in pupillary diameter compared to baseline ([1]; 30 mins post instillation, 150 to 200 lux): 0.3 mm
- maximal decrease in pupillary diameter ([1]; 30 mins): 0.4 mm
- average decrease in pupillary diameter compared to baseline ([1]; 1 hr post instillation): 0.3 mm
- maximal decrease in pupillary diameter ([1]; 1 hr): approximately 0.8 mm
- average decrease in pupillary diameter compared to baseline ([1]; 2 hrs post instillation): approximately 0.2 mm
- maximal decrease in pupillary diameter ([1]; 2 hrs): approximately 0.6 mm
- Difference in pupillary diameter (Right − Left) ([2]; 30 mins post instillation of Caffeine 2 w/v % in left eye, both eyes Tropicamide 1%): 0.5 mm
- Difference in pupillary diameter (Right − Left) ([2]; 60 mins post instillation of Caffeine 2 w/v % in left eye, both eyes Tropicamide 1%): 0.7 mm
- Difference in pupillary diameter (Right − Left) ([2]; 2 hrs post instillation of Caffeine 2 w/v % in left eye, both eyes Tropicamide 1%): 0.8 mm
- difference between the pupils ([2]; at 1 and 2 hours following instillation of Caffeine in the left eye, both eyes Tropicamide 1%): approximately 0.8 mm
- left eye pupil diameter ([2]; left eye (Tropicamide 1% then Caffeine 2 w/v %), 6.5 hrs from the baseline visit, returned to normal): 3.8 mm
- Pupillary diameter Left eye ([2]; left eye, 30 mins post instillation of Caffeine 2 w/v %): 6.8 mm
- Pupillary diameter Left eye ([2]; left eye, 60 mins post instillation of Caffeine 2 w/v %): 6.5 mm
- Pupillary diameter Left eye ([2]; left eye, 2 hrs post instillation of Caffeine 2 w/v %): 6.3 mm
- left eye pupillary diameter ([2]; left eye, 3 hrs from instillation of Caffeine 2 w/v %, 4 hrs from Tropicamide 1% (FIG. 4)): 5.9 mm

Source: patent publication US20240261291A1, “Ophthalmic Compositions and/or Methods for Presbyopia, Mydriasis and/or Ocular Discomfort Management” (Brien Holden Vision Institute Limited, priority 2021, published 2024)
